Source: patent publication US6486147B2, “Cosmetic composition containing a steroid and a 2-alkylalkanol or an ester thereof” (L'Oreal, priority 2000, dated 2002)

Experiment: Solubility of DHEA in various conventional solubilizing agents
Assay type: physicochemical
Details: for Solubility after one month (AT): ambient temperature
Protocol: The solubility of DHEA in various conventional solubilizing agents is mentioned in Table 2 below by way of comparison (the percentage of DHEA is calculated with respect to the total weight of DHEA and of solvent; AT refers to ambient temperature): […]

[1] = solvent Benzoate of C12-15 alcohols, 3% DHEA
[2] = solvent Propylene glycol, 5-10% DHEA
[3] = solvent Propylene glycol, 15-20% DHEA

C[C@]12CC[C@H](O)CC1=CC[C@@H]1[C@@H]2CC[C@]2(C)C(=O)CC[C@@H]12 [DHEA, dehydroepiandrosterone]
Solubility [1]: Soluble at 50 °C | Solubility after one month (AT) [1]: Crystals | Solubility (solvent Dodecanol, 10% DHEA): Insoluble even at | Solubility after one month (AT) (solvent Dodecanol, 10% DHEA): Crystals | Solubility (solvent Phenoxyethanol, 20% DHEA (of total weight of DHEA and solvent)): Soluble at AT | Solubility after one month (AT) (solvent Phenoxyethanol, 20% DHEA): Crystals | Solubility [2]: Soluble at 50 °C | Solubility after one month (AT) [2]: Crystals | Solubility [3]: Insoluble at AT | Solubility after one month (AT) [3]: Crystals
